Source: publication PMC3857843, “Multiple Transport-Active Binding Sites Are Available for a Single Substrate on Human P-Glycoprotein (ABCB1)” (PLoS ONE, 2013)
Values belong to the compound of their own block, whether it stands above or below them.

Key:
all mutant Pgps = assay: Vanadate-sensitive ATP hydrolysis of Pgp in crude membranes; type: biochemical, human
Method: Crude membranes were prepared as described previously

Y307C mutant Pgp [1] = target: T1, Y307C mutant Pgp (Homo sapiens, UniProt P08183, C1074A/C1125A/C1227A/C137A/C431A/C717A/C956A/Y307C); assay: Transport of fluorescent substrates in BacMam-transduced HeLa cells (flow cytometry); details: compared to cysless WT Pgp (taken as 100%), calcein-AM 0.5 µM 10 min, Rh123 […], other substrates 0.5 µM 45 min
T1 sequence (P08183 whole entry C137A/Y307C/C431A/C717A/C956A/C1074A/C1125A/C1227A): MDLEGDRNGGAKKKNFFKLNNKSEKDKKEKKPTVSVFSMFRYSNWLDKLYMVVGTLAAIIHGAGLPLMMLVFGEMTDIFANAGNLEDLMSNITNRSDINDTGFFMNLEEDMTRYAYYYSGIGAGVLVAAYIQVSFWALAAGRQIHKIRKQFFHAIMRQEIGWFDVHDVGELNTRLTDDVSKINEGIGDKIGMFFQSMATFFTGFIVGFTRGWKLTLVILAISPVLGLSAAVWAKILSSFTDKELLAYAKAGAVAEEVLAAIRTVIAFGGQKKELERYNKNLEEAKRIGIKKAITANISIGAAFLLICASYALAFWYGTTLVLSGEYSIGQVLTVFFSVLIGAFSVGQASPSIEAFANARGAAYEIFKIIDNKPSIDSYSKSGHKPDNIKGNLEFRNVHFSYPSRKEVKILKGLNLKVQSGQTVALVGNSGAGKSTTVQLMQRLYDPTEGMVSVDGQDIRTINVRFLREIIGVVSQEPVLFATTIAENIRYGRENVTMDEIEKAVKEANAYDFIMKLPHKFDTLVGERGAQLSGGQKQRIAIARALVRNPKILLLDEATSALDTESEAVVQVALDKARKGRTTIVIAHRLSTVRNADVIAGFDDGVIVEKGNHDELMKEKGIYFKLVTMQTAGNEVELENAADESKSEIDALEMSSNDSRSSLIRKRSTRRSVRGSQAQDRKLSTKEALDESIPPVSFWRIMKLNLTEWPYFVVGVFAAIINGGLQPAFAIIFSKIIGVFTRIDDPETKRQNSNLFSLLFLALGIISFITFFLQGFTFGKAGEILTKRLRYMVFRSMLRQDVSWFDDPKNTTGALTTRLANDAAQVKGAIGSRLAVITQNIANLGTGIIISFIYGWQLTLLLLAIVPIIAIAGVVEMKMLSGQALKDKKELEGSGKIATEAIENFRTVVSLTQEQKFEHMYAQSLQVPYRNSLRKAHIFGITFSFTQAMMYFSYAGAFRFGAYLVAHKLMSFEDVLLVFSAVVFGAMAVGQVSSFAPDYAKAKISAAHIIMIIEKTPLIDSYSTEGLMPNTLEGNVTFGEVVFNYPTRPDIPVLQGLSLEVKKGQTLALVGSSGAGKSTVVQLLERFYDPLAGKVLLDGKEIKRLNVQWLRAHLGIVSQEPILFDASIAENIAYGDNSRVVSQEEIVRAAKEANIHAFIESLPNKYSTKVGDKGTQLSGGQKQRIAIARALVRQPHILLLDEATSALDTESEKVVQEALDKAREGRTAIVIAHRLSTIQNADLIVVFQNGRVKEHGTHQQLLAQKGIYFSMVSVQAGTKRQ
Method: (§1) The BacMam-Pgp virus (encoding cysless WT and the mutant Pgps) was added to 2.5 million HeLa cells at a titer of 50-60 viral particles per cell in 3 ml of DMEM and incubated at 37°C [30]. After 1 hr DMEM was added to make a total of 20 ml in the flask and these infected cells were further incubated for 3-4 hrs. 10 mM butyric acid was then added and the cells continued to incubate at 37°C. After 24 hrs, the cells were trypsinized, washed, counted and analyzed by flow cytometry for cell surface expression and the function of the wildtype and mutant Pgps.
(§2) The transport function of cysless WT and mutant Pgps was determined using fluorescent compounds with flow cytometry as previously described. […] Cells were washed with cold PBS and resuspended in PBS containing 0.1% BSA before analysis.

Q725C/V982C mutant Pgp [2] = target: T2, Q725C/V982C mutant Pgp (Homo sapiens, UniProt P08183, C1074A/C1125A/C1227A/C137A/C431A/C717A/C956A/Q725C/V982C); assay: as above; details: compared to cysless WT Pgp (taken as 100%), calcein-AM 0.5 µM 10 min, Rh123 […], other substrates 0.5 µM 45 min
T2 sequence (P08183 whole entry C137A/C431A/C717A/Q725C/C956A/V982C/C1074A/C1125A/C1227A): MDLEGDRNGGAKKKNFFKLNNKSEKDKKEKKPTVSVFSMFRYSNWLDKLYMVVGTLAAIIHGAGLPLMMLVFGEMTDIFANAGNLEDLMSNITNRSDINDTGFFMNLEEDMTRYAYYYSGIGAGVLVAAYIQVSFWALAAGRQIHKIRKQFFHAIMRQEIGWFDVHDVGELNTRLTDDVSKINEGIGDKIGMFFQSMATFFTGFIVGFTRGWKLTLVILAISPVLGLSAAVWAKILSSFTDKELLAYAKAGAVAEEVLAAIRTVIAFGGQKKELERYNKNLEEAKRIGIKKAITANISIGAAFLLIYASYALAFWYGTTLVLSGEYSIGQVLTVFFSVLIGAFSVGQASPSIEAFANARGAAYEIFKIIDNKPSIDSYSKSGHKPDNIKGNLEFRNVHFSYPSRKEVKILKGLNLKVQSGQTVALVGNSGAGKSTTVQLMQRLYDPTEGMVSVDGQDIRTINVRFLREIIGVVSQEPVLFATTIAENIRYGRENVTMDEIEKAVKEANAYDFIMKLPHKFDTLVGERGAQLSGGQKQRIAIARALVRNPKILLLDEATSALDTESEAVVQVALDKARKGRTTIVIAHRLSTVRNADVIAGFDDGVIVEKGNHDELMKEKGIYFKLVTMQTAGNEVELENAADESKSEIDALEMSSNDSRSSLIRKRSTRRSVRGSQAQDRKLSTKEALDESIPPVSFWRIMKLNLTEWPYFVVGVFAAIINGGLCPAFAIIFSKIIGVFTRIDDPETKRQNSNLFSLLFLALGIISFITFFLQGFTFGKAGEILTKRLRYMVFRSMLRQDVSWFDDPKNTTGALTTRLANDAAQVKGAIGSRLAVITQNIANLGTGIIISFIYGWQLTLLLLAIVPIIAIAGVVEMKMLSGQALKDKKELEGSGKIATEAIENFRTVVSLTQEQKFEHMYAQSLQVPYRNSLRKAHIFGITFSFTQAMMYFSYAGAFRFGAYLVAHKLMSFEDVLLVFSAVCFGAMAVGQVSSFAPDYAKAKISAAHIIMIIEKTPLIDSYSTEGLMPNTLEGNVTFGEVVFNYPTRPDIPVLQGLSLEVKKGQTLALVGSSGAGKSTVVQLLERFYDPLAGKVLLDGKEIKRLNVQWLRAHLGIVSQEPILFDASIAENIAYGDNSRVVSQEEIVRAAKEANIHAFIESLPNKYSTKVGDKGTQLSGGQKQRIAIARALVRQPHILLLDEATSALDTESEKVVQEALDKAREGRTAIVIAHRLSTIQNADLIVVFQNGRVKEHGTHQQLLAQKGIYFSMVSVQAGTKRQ
Method: as §1, §2

F728C mutant Pgp [3] = target: T3, F728C mutant Pgp (Homo sapiens, UniProt P08183, C1074A/C1125A/C1227A/C137A/C431A/C717A/C956A/F728C); assay: as above; details: compared to cysless WT Pgp (taken as 100%), calcein-AM 0.5 µM 10 min, Rh123 […], other substrates 0.5 µM 45 min
T3 sequence (P08183 whole entry C137A/C431A/C717A/F728C/C956A/C1074A/C1125A/C1227A): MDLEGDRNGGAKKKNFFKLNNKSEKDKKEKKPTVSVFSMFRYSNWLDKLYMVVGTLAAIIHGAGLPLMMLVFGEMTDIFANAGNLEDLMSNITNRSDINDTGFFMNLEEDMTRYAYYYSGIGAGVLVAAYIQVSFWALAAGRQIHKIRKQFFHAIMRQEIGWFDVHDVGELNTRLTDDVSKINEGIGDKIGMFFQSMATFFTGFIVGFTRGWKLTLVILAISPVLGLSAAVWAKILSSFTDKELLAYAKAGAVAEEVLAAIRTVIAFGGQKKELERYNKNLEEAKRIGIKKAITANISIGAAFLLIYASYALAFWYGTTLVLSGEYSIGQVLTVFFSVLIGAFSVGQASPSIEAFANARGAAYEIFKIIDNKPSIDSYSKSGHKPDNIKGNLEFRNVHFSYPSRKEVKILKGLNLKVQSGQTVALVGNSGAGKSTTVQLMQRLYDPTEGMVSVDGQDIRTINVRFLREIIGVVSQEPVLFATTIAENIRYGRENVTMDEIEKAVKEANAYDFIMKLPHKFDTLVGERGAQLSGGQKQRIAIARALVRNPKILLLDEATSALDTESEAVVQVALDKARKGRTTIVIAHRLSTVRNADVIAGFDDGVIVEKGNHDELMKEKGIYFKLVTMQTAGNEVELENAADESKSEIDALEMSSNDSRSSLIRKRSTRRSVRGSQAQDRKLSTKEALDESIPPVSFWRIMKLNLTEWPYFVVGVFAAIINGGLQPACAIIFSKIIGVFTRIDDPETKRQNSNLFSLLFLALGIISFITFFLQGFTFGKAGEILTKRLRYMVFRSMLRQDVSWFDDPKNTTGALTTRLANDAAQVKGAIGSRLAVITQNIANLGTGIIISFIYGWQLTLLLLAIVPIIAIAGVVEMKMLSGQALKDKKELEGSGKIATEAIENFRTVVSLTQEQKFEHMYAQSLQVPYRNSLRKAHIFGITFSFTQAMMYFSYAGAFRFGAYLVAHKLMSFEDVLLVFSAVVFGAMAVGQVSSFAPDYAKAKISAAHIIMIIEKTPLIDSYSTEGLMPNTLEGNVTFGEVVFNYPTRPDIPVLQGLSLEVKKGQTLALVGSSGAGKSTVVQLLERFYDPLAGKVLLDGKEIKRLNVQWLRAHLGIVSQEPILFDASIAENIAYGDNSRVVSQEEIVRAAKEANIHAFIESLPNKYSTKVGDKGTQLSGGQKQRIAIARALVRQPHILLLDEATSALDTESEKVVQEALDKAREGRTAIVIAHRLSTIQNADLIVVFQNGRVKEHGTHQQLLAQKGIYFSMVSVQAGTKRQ
Method: as §1, §2

F343C mutant Pgp [4] = target: T4, F343C mutant Pgp (Homo sapiens, UniProt P08183, C1074A/C1125A/C1227A/C137A/C431A/C717A/C956A/F343C); assay: as above; details: compared to cysless WT Pgp (taken as 100%), calcein-AM 0.5 µM 10 min, Rh123 […], other substrates 0.5 µM 45 min
Method: as §1, §2

F978C mutant Pgp = F978C mutant Pgp (Homo sapiens, UniProt P08183, C1074A/C1125A/C1227A/C137A/C431A/C717A/C956A/F978C); assay: as above; details: compared to cysless WT Pgp (taken as 100%), calcein-AM 0.5 µM 10 min, Rh123 […], other substrates 0.5 µM 45 min
Method: as §1, §2

F343C/V982C mutant Pgp [5] = target: T5, F343C/V982C mutant Pgp (Homo sapiens, UniProt P08183, C1074A/C1125A/C1227A/C137A/C431A/C717A/C956A/F343C/V982C); assay: as above; details: compared to cysless WT Pgp (taken as 100%), calcein-AM 0.5 µM 10 min, Rh123 […], other substrates 0.5 µM 45 min
Method: as §1, §2

V982C mutant Pgp [6] = target: T6, V982C mutant Pgp (Homo sapiens, UniProt P08183, C1074A/C1125A/C1227A/C137A/C431A/C717A/C956A/V982C); assay: as above; details: compared to cysless WT Pgp (taken as 100%), calcein-AM 0.5 µM 10 min, Rh123 […], other substrates 0.5 µM 45 min
T6 sequence (P08183 whole entry C137A/C431A/C717A/C956A/V982C/C1074A/C1125A/C1227A): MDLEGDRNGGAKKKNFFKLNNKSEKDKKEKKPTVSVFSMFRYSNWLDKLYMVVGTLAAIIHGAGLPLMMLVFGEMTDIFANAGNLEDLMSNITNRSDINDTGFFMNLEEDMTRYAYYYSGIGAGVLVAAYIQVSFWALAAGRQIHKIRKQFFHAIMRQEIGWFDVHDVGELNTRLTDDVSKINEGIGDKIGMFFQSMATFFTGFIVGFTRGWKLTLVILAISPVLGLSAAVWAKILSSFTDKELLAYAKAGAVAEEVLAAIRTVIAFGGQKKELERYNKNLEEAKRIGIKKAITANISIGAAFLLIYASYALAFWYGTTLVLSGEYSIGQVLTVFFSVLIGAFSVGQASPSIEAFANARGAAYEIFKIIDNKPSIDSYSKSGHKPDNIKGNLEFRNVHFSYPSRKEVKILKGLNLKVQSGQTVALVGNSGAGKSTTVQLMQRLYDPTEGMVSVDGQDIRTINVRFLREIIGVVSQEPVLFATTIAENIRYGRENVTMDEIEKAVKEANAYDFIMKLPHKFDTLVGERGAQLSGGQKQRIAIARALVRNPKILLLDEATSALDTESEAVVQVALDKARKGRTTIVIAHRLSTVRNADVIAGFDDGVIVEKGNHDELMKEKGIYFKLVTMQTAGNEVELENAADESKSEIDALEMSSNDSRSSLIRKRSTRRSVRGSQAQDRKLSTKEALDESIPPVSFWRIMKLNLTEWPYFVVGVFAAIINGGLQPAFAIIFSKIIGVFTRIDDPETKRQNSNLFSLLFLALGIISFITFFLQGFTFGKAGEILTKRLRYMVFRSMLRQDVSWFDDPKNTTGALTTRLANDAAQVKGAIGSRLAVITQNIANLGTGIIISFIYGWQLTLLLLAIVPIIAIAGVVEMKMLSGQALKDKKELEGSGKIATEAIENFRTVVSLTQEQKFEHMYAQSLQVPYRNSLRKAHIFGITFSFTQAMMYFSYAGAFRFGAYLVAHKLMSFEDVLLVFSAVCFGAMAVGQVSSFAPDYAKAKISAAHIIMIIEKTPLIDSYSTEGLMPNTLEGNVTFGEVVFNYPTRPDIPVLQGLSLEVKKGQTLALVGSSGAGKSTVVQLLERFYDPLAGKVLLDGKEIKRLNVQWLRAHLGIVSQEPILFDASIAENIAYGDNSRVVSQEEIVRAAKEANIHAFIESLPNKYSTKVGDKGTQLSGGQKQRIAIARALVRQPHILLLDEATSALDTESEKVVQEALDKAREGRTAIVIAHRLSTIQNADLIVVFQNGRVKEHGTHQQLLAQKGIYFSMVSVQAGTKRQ
Method: as §1, §2

Q725C mutant Pgp [7] = target: T7, Q725C mutant Pgp (Homo sapiens, UniProt P08183, C1074A/C1125A/C1227A/C137A/C431A/C717A/C956A/Q725C); assay: as above; details: compared to cysless WT Pgp (taken as 100%), calcein-AM 0.5 µM 10 min, Rh123 […], other substrates 0.5 µM 45 min
Method: as §1, §2

[8] = target: T8, Y307C/Q725C/V982C mutant Pgp (Homo sapiens, UniProt P08183, C1074A/C1125A/C1227A/C137A/C431A/C717A/C956A/Q725C/V982C/Y307C); assay: Inhibition of IAAP photo-labeling of Pgp in crude membranes
Method: (§3) Then, samples were photocrosslinked with IAAP at 4°C as described in the Materials and Methods section. Mean values from at least three independent experiments are plotted and error bars depict SD.
(§4) High-Five insect cells (Invitrogen, Carlsbad, CA) were infected with recombinant baculovirus carrying the human MDR1 cDNA cysless WT and various mutant Pgps, with a His6-tag at the C-terminus as described previously. Crude membranes were prepared as described previously
(§5) The crude membranes of High-Five insect cells containing 60-80 µg protein per 100 µL in 50 mM MES-Tris buffer (pH 6.8), were incubated for 10 minutes at 37°C in the absence (control) and presence of compound(s) at indicated concentration.

cysless WT Pgp [9] = target: T9, cysless WT Pgp (Homo sapiens, UniProt P08183, C1074A/C1125A/C1227A/C137A/C431A/C717A/C956A); assay: as above
Method: as §3, §4, §5

Y307C mutant Pgp [10] = target: T1, Y307C mutant Pgp; assay: Vanadate-sensitive ATP hydrolysis of Pgp in crude membranes; details: Verapamil 50 µM, QZ59-SSS 1 µM, Valinomycin 10 µM, FSBA 1 mM
Method: (§6) Vanadate-sensitive Pgp-mediated ATP hydrolysis was measured as described in Materials and Methods. […] At least two independent experiments were carried out for each mutant with indicated compounds. Additional information including standard deviations, fold-stimulation or % inhibition, and number of experiments is given in the section (Tables S2 and S3).
as §4
(§7) Crude membranes (10-25 µg protein/100 µ L) from High Five insect cells expressing cysless WT or mutant Pgp were incubated in the presence and absence of sodium orthovanadate (0.3 mM), in a buffer containing 50 mM MES-Tris pH 6.8, 50 mM KCl, 5 mM NaN3, 1 mM EGTA, 1 mM ouabain, 2 mM DTT, and 10 mM MgCl2. […] The reaction was initiated by addition of 5 mM ATP and continued for 20 min at 37°C. […] The reaction was stopped by addition of 100 µ L of 5% SDS and the amount of inorganic phosphate generated was quantified with a colorimetric reaction, as previously described.

F728C/V982C mutant Pgp = F728C/V982C mutant Pgp (Homo sapiens, UniProt P08183, C1074A/C1125A/C1227A/C137A/C431A/C717A/C956A/F728C/V982C); assay: as above; details: Verapamil 50 µM, QZ59-SSS 1 µM, Valinomycin 10 µM, FSBA 1 mM
Method: as §6, §4, §7

Y307C/V982C mutant Pgp = Y307C/V982C mutant Pgp (Homo sapiens, UniProt P08183, C1074A/C1125A/C1227A/C137A/C431A/C717A/C956A/V982C/Y307C); assay: as above; details: Verapamil 50 µM, QZ59-SSS 1 µM, Valinomycin 10 µM, FSBA 1 mM
Method: as §6, §4, §7

Q725C/V982C mutant Pgp [11] = target: T2, Q725C/V982C mutant Pgp; assay: as above; details: Verapamil 50 µM, QZ59-SSS 1 µM, Valinomycin 10 µM, FSBA 1 mM
Method: as §6, §4, §7

[12] = target: T8, Y307C/Q725C/V982C mutant Pgp; assay: as above; details: Verapamil 50 µM, QZ59-SSS 1 µM, Valinomycin 10 µM, FSBA 1 mM
Method: as §6, §4, §7

F728C mutant Pgp [13] = target: T3, F728C mutant Pgp; assay: as above; details: Verapamil 50 µM, QZ59-SSS 1 µM, Valinomycin 10 µM, FSBA 1 mM
Method: as §6, §4, §7

F343C mutant Pgp [14] = target: T4, F343C mutant Pgp; assay: as above; details: Verapamil 50 µM, QZ59-SSS 1 µM, FSBA 1 mM
Method: as §6, §4, §7

F343C/V982C mutant Pgp [15] = target: T5, F343C/V982C mutant Pgp; assay: as above; details: Verapamil 50 µM, QZ59-SSS 1 µM, Valinomycin 10 µM, FSBA 1 mM
Method: as §6, §4, §7

cysless WT Pgp [16] = target: T9, cysless WT Pgp; assay: as above; details: Verapamil 50 µM, QZ59-SSS 1 µM, Valinomycin 10 µM, FSBA 1 mM
Method: as §6, §4, §7

V982C mutant Pgp [17] = target: T6, V982C mutant Pgp; assay: as above; details: Verapamil 50 µM, QZ59-SSS 1 µM, Valinomycin 10 µM, FSBA 1 mM
Method: as §6, §4, §7

Q725C mutant Pgp [18] = target: T7, Q725C mutant Pgp; assay: as above; details: Verapamil 50 µM, QZ59-SSS 1 µM, Valinomycin 10 µM, FSBA 1 mM
Method: as §6, §4, §7

SMILES: COc1ccc(CCN(C)CCCC(C#N)(c2ccc(OC)c(OC)c2)C(C)C)cc1OC (stereo not drawn) [Verapamil, verapamil]
Stimulation of ATP hydrolysis (all mutant Pgps; all the mutants, Verapamil 50 µM): 2-4 fold

Transport function (Y307C mutant Pgp [1]): 90-100%
Transport function (Q725C/V982C mutant Pgp [2]): 90-100%
Transport function (F728C mutant Pgp [3]): 90-100%
Transport function (F343C mutant Pgp [4]): 90-100%
Transport function (F978C mutant Pgp): 90-100%
Transport function (F343C/V982C mutant Pgp [5]): 90-100%
Transport function (V982C mutant Pgp [6]): 90-100%
Transport function (Q725C mutant Pgp [7]): 90-100%
SMILES: COC(=O)c1ccccc1-c1c2ccc(=N)cc-2oc2cc(N)ccc12 [Rh123, rhodamine123]

SMILES: Nc1ncnc2c1ncn2[C@@H]1O[C@H](COC(=O)c2ccc(S(=O)(=O)F)cc2)[C@@H](O)[C@H]1O [FSBA, 5′-fluorosulfonylbenzoyl 5′-adenosine]
Inhibition of IAAP photo-labeling ([8]; Y307C/Q725C/V982C, at higher concentrations): < 30%
Max Inhibition (%) of IAAP-labeling (cysless WT Pgp [9]; Cysless WT, High-Five crude membranes): 85%
IC50 (cysless WT Pgp [9]; read-out: IC50 (µM), inhibition of IAAP-labeling, Cysless WT, High-Five crude membranes): 390 µM
ATP hydrolysis, Average (Y307C mutant Pgp [10]): 14 nmoles Pi/min/mg protein
ATP hydrolysis, Fold-stimulation (Y307C mutant Pgp [10]; relative to basal): 1.9
ATP hydrolysis, Average (F728C/V982C mutant Pgp): 5 nmoles Pi/min/mg protein
ATP hydrolysis, Fold-stimulation (F728C/V982C mutant Pgp; relative to basal): 1.1
ATP hydrolysis, Average (Y307C/V982C mutant Pgp): 20 nmoles Pi/min/mg protein
ATP hydrolysis, Fold-stimulation (Y307C/V982C mutant Pgp; relative to basal): 2.1
ATP hydrolysis, Average (Q725C/V982C mutant Pgp [11]): 12 nmoles Pi/min/mg protein
ATP hydrolysis, Fold-stimulation (Q725C/V982C mutant Pgp [11]; relative to basal): 2.3
ATP hydrolysis, Average [12]: 6 nmoles Pi/min/mg protein
ATP hydrolysis, Average (F728C mutant Pgp [13]): 11 nmoles Pi/min/mg protein
ATP hydrolysis, Fold-stimulation (F728C mutant Pgp [13]; relative to basal): 1.8
ATP hydrolysis, Average (F343C mutant Pgp [14]): 39 nmoles Pi/min/mg protein
ATP hydrolysis, Fold-stimulation (F343C mutant Pgp [14]; relative to basal): 2.1
ATP hydrolysis, Average (F343C/V982C mutant Pgp [15]): 50 nmoles Pi/min/mg protein
ATP hydrolysis, Fold-stimulation (F343C/V982C mutant Pgp [15]; relative to basal): 2.7
ATP hydrolysis, Average (cysless WT Pgp [16]): 52 nmoles Pi/min/mg protein
ATP hydrolysis, Fold-stimulation (cysless WT Pgp [16]; relative to basal): 2.4
ATP hydrolysis, Average (V982C mutant Pgp [17]): 28 nmoles Pi/min/mg protein
ATP hydrolysis, Fold-stimulation (V982C mutant Pgp [17]; relative to basal): 2.4
ATP hydrolysis, Average (Q725C mutant Pgp [18]): 10 nmoles Pi/min/mg protein
ATP hydrolysis, Fold-stimulation (Q725C mutant Pgp [18]; relative to basal): 2.0

Transport function (Y307C mutant Pgp [1]): 90-100%
Transport function (Q725C/V982C mutant Pgp [2]): 90-100%
Transport function (F728C mutant Pgp [3]): 90-100%
Transport function (F343C mutant Pgp [4]): 90-100%
Transport function (F978C mutant Pgp): 90-100%
Transport function (F343C/V982C mutant Pgp [5]): 90-100%
Transport function (V982C mutant Pgp [6]): 90-100%
Transport function (Q725C mutant Pgp [7]): 90-100%
SMILES: COc1cccc2c1C(=O)c1c(O)c3c(c(O)c1C2=O)C[C@@](O)(C(C)=O)C[C@@H]3O[C@H]1C[C@H](N)[C@H](O)[C@H](C)O1 [Dauno, daunorubicin]

SMILES: CC(C)[C@@H]1NC(=O)c2csc(n2)[C@H](C(C)C)NC(=O)c2csc(n2)[C@H](C(C)C)NC(=O)c2csc1n2 [QZ59-SSS]
Modulation of ATP hydrolysis (all mutant Pgps; all mutant Pgps, inhibition measured in presence of verapamil 5 µM): stimulates ATP hydrolysis of the mutant Pgps with no exceptions
Inhibition of IAAP photo-labeling [8]: < 30%
IC50 (cysless WT Pgp [9]): 6 µM
Max Inhibition (%) of IAAP-labeling (cysless WT Pgp [9]): 72%
